Results from patent US4678809A, “Injectable fomulations of disulfiram for the treatment of alcoholism” (priority 1985, dated 1987).
“Also recorded” adds a separate entry of the source. Read-outs that look alike come from different tables or passages of the source.

Assays:
[1] = in vivo; cited from earlier work
[2] = tested on: ethanol in breath; experiment: Clinical study: peak ethanol concentration in the breath after alcohol challenge; assay type: in vivo, human; conditions: compared to peak prior to treatment
Experimental: (§1) The method utilizes a Pyrex glass gas-collecting tube (internal volume approximately 300 cc) sealed at both ends with Teflon® taps. A side-port sealed with a Neoprene rubber septum permits sampling of the contents. The tube is first heated to approximately 70° C. to prevent any condensation from the breath. The subject then blows forcefully into the tube, and the Teflon taps are closed at the end of expiration while the tube is still in the subject's mouth. The tube is then taken to the laboratory, where, after reheating to 70° C., a 2.0 ml sample of the breath is aspirated through the Neoprene septum with a heated syringe and immediately injected into a Gas Chromatograph, for assay of ethanol and acetaldehyde by a standard flame-ionization detection technique. (The method has been described by Phillips et al. in Alcoholism: Clinical & Experimental Research 1984; 8:293-296.)
(§2) Each subject discontinued oral disulfiram one week before commencing the study. On day zero, each fasted from the preceding midnight, then received a standard alcohol challenge (0.15 G/kg). After eating a meal, and confirming by breath testing (with an Alco-Sensor III) that the blood ethanol concentration had fallen to zero, subject No. 1 received a dose of 1 G disulfiram subcutaneously. […]

[3] = cited from earlier work
[4] = tested on: alcoholic humans; conditions: cited from earlier work
[5] = tested on: alcoholic human subjects; experiment: Clinical study: subjective and clinical response to alcohol challenge; assay type: in vivo
Experimental: (§3) Two alcoholic human subjects were studied: Subject No.1 and subject No. 2 a person.
(§4) Each subject discontinued oral disulfiram one week before commencing the study. On day zero, each fasted from the preceding midnight, then received a standard alcohol challenge (0.15 G/kg). After eating a meal, and confirming by breath testing (with an Alco-Sensor III) that the blood ethanol concentration had fallen to zero, subject No. 1 received a dose of 1 G disulfiram subcutaneously. The drug was administered in the upper outer quadrant of the right buttock with aseptic precautions using a 14 G needle, after preparing the skin with infiltration of local anesthetic. A control injection of sterile normal saline was administered to the left buttock. Subject No. 2 received 2 G disulfiram in a similar fashion.
(§5) A similar alcohol challenge was then repeated on days 7, 14, 21, and 28 after the injection. A physical examination was performed at each visit and the injection site examined.
Subjective responses--the subject was asked to state aloud the number in the following table which most closely accorded with the way he or she felt at the moment. This response was executed every five minutes, following the alcohol challenge, for a two hour period.

[6] = tested on: alcoholic human subjects; experiment: Clinical study: tolerability, injection site and systemic effects; assay type: in vivo; conditions: 250 mg every morning, two subjects
Experimental: as §3, §4, §5

[7] = Local and systemic toxicity after subcutaneous implantation in rats
Description: Two groups of animals were studied: a test group receiving the subcutaneous C-14-disulfiram-PLGA implant, and a control group receiving subcutaneous uncompounded C-14-disulfiram. Each group comprised five Wistar CD-1 male rats weighing between 100-120 g. After anesthesia with Penthrane (Abbott Laboratories), a slit was cut in the skin of the interscapular region and a small subcutaneous pocket was dissected, large enough for the introduction of the 1/8 inch diameter rods. Each rat received 500 mg of the 20% composite rods (containing 100 mg C-14-disulfiram and 400 mg PLFA) and the wound was closed with clips. […] No attempt was made to preserve strict asepsis during these procedures.
All rats were individually housed in metabolic cages to facilitate the separate collection of urine and feces. Prior to implantation, their fecal and urine samples were collected to determine background counts. Subsequent samples of all excreted urine and feces were collected on days 1,2,7,9,11, 15,18,22,25,29,32,39,46,53,60,67,74,81 and 88 after implantation. Urine samples were assayed for C-14 labelled material in a Beckman LS-230 liquid scintillation counter, and the excretion was calculated as the mass of implanted disulfiram which contained an equivalent amount of radiolabel. Feces were combusted to 14-CO2 with a Harvey Biological oxidizer and absorbed in oxyfluor-CO2 (New England Nuclear) for counting. […]

[8] = tested on: acetaldehyde in breath; experiment: Clinical study: peak acetaldehyde concentration in the breath after alcohol challenge; assay type: in vivo, human
Experimental: as §1, §2

[9] = tested on: dopamine beta hydroxylase; conditions: cited from earlier work
[10] = Gamma irradiation: sterility and chemical stability; assay type: physicochemical; conditions: after gamma irradiation
Description: In order to be suitable for injection, the formulations must be sterile. […] Gamma irradiation was therefore used as the best available technique.
A Best Industries Gammaradiator 100 Cs-137 irradiator was used. The disulfiram unit doses were placed in the 20×20 cm irradiation chamber, 30 cm from a 1800 curie Cesium-137 source emitting 660 KeV gamma rays. The exposure rate at the point of irradiation was 90 R/min. A filter was placed in the beam to ensure a uniform exposure at the floor of the irradiation chamber. A total exposure of 50,000 R was administered. Prior to injection, approximately 10 cc of sterile normal saline was drawn up into the syringe which was then shaken vigorously to suspend the DSF powder. The resultant slurry could then be readily injected through a wide bore (e.g. 14 gauge) needle.

[11] = tested on: aldehyde dehydrogenase; conditions: thiol groups, cited from earlier work
[12] = pre-treatment with DSF, Lundwall et al.

For `S=C=S` [carbon disulfide], the excretion of metabolites [1] is given as “a volatile compound excreted in the breath”.
In the case of `CCN(CC)C(=S)SSC(=S)N(CC)CC` [disulfiram], the “peak ethanol concentration in breath, Subject No. 1” value ([2]; 1 G) is listed as “elevated peak in subject No. 1, on days 7 and 14”, the “peak ethanol concentration in breath, Subject No. 2” value ([2]; 2 G) is listed as “only a mild elevation in subject No. 2 on day 7” and the “solubility of DSF in water” value [3] is listed as 0.02 G/100 ml. The “solubility in water (in words)” value ([3]; listed as DSF) was “poorly soluble in water; also recorded: near insolubility in water”, the “end of typical response after consuming alcohol” value [4, 12] was at most 30 min and the “onset of typical response after consuming alcohol” value [4, 12] was “five to ten”. The “Disulfiram-Ethanol Reaction symptoms” value ([4]; pretreatment with DSF, then ethyl alcohol, listed as DSF) was “nausea, palpitations, flushing, hyperventilation and hypotension”, the “onset of diaphoresis after ethanol challenge, Subject No. 1” value ([5]; 1 G disulfiram, day 7) was 20 min and the “diaphoresis, Subject No. 1” value ([5]; 1 G disulfiram, day 7, duration of the diaphoretic period) was 10 min. The “subjective effects following ethanol challenges, Subject No. 1” value ([5]; 1 G disulfiram, entire four weeks) was “no adverse subjective effects”, the “subjective discomfort following ethanol challenge, Subject No. 2” value ([5]; 2 G disulfiram, day 7) was “dizziness, facial flushing, blurred vision and headache, and their conjunctivae were observed to be injected” and the “subjective discomfort score, Subject No. 2, at 20 minutes” value ([5]; 2 G disulfiram, day 7, 20 minutes, scale 1 Very well to 5 Terrible, 3 = A little unwell) was 3. For the same compound, the “subjective discomfort score, Subject No. 2, at 40 minutes” value ([5]; 2 G disulfiram, day 7, 40 minutes, scale 1 Very well to 5 Terrible, 3 = A little unwell) was 3, the “effects following ethanol challenge, Subject No. 2, day 28” value ([5]; 2 G disulfiram, day 28) was “no unpleasant symptoms” and the “positive results of alcohol challenges (symptoms)” value ([5]; after DSF injection, human subjects) was “elevated skin temperatures, dizziness, facial flushing, headache, and blurring of vision”. The “adverse effects of oral disulfiram before the study” value [6] was “no adverse effects”, the “local or systemic toxicity” value [7] was “No evidence of local or systemic toxicity was observed” and the “peak acetaldehyde concentration in breath, Subject No. 1” value ([8]; 1 G, compared to peak prior to treatment) was “elevated peak in Subject No. 1 on day 7”. For the same compound, the “acetaldehyde following consumption of alcohol” value ([8]; FIG. 3, after injection of DSF) was “elevated levels of acetaldehyde”, the “inhibition of dopamine beta hydroxylase” value [9] was “inhibits dopamine beta hydroxylase” and the “chemical stability of irradiated samples” value [10] was “did not demonstrate any reduction in the concentration of disulfiram”. For the same compound, the “inactivation of aldehyde dehydrogenase” value [11] was “inactivating aldehyde dehydrogenase”, the “inactivation of aldehyde dehydrogenase” value ([11]; listed as DSF) was “inactivates aldehyde dehydrogenase by irreversible disulfide interchange reactions with thiol groups” and the excretion of metabolites [1] was “the breakdown products are promptly excreted”. The “metabolism in the blood and liver” value [1] was “very rapidly metabolized in the blood and liver”.
